Measurements: patent publication US20230113037A1 (Bayer Aktiengesellschaft, priority 2019, published 2023)

Tests used:
AHR [1] = target: T1, AHR (Homo sapiens, UniProt P35869); test: In vitro assay 1: antagonism in human cell line (AHR transactivation, firefly luciferase reporter, kynurenic acid prestimulated); assay type: cell-based; conditions: AHR Antagonism Human IC50 [M], firefly luciferase reporter
T1 construct: U87 MG glioblastoma cells (ATCC #HTB-14) endogenously expressing AHR; endogenous in cells; host or cells: U87 MG glioblastoma cells (ATCC #HTB-14)
T1 sequence (P35869 11-848): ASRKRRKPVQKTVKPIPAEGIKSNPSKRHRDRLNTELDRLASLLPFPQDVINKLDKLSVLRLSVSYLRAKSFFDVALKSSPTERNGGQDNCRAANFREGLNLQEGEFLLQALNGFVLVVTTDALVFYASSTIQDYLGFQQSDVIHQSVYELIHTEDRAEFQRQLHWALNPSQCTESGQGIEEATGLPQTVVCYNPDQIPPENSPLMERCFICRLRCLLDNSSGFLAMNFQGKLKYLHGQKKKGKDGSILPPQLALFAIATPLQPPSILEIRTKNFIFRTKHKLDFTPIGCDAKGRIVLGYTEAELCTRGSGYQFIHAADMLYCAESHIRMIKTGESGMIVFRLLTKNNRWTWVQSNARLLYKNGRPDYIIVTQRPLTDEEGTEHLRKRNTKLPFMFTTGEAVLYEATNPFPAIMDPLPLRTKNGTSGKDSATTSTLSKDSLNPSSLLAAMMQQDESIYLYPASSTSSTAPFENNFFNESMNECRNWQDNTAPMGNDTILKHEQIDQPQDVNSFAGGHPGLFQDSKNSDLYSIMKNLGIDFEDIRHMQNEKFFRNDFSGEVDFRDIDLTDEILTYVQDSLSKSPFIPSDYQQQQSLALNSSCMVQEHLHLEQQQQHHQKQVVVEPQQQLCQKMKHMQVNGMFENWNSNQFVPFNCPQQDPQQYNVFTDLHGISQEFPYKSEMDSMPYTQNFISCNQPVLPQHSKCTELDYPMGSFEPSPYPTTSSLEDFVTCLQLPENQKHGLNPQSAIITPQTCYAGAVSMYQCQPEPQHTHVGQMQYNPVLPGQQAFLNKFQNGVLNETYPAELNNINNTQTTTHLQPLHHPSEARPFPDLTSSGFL
Procedure, shortened: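 Antagonism measured as loss of kynurenic acid-driven firefly luciferase from DRE reporter in stably transfected U87 MG cells; constitutive Renilla signal monitors cytotoxicity. Positive/negative control normalization, staurosporine 5 μM with 150 μM kynurenic acid as inhibition control; replicates given as mean or median.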

AHR [2] = target: T2, AHR (Mus musculus, UniProt P30561); test: In vitro assay 3: antagonism in mouse cell line (AHR transactivation, firefly luciferase reporter, kynurenic acid prestimulated); assay type: cell-based; conditions: Hepa 1c1c7 cells, 200 μM kynurenic acid, 20 hours, firefly luciferase reporter, read-out: AHR Antagonism Mouse IC50
T2 sequence (P30561 1-848 P471L/N533S/M589L): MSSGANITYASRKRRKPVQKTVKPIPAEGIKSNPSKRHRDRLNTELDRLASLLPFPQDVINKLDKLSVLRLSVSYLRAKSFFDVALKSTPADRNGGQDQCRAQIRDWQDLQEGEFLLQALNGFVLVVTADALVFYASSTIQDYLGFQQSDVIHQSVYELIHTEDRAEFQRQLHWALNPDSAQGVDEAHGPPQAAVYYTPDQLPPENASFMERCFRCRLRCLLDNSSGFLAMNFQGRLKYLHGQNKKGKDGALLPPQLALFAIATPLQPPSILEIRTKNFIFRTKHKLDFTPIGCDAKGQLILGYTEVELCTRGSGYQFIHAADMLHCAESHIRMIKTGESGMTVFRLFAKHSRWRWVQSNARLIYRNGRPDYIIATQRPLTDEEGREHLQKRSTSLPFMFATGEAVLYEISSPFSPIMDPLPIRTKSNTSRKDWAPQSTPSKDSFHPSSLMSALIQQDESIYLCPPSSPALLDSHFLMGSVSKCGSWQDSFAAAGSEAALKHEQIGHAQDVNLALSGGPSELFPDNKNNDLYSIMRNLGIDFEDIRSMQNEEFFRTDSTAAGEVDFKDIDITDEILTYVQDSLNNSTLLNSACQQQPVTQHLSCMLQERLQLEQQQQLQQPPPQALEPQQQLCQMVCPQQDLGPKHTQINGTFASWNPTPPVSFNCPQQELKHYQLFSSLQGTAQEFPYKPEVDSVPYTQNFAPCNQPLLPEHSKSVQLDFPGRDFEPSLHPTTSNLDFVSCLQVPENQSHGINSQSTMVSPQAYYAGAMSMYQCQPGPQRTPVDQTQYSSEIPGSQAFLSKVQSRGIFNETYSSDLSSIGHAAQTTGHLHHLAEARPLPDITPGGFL
Procedure, shortened: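 Luminescence from an AHR-dependent DRE-luciferase reporter, stably integrated in mouse cells, quantifies blockade of kynurenic acid-driven activation. Unstimulated cells mark maximal inhibition; normalization uses both control types, and multiply tested compounds carry mean or median values.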

IC50 (AHR [1])	IC50 (AHR [2])	Compound
3.54e-07 M	5040 nM	COc1ccc(-c2nc3c4cccc(N5CCCC5=O)c4nc(N[C@@H]4CCCCNC4=O)n3n2)cc1 [Example 1001, (3R)-3-{[2-(4-methoxyphenyl)-7-(2-oxopyrrolidin-1-yl)[1,2,4]triazolo[1,5-c]quinazolin-5-yl]amino}azepan-2-one]
1.26e-09 M	42 nM	COc1ccc(-c2nc3c4cccc(C5COC5)c4nc(N[C@@H]4CCCCNC4=O)n3n2)cc1 [Example 1002, (3R)-3-{[2-(4-methoxyphenyl)-7-(oxetan-3-yl)[1,2,4]triazolo[1,5-c]quinazolin-5-yl]amino}azepan-2-one]
9.15e-10 M	4.06 nM	COCc1cccc2c1nc(N[C@@H]1CCCCNC1=O)n1nc(-c3ccc(OC)cc3)nc21 [Example 1003, (3R)-3-{[7-(methoxymethyl)-2-(4-methoxyphenyl)[1,2,4]triazolo[1,5-c]quinazolin-5-yl]amino}azepan-2-one]
1.9e-08 M	266 nM	COCc1cccc2c1nc(N[C@@H]1CCCCNC1=O)n1nc(-c3cnn(C)c3)nc21 [Example 1004, (3R)-3-{[7-(methoxymethyl)-2-(1-methyl-1H-pyrazol-4-yl)[1,2,4]triazolo[1,5-c]quinazolin-5-yl]amino}azepan-2-one]
